According to ChEMBL document CHEMBL1154822, “Synthesis and antiproliferative activity of 7-azaindirubin-3'-oxime, a 7-aza isostere of the natural indirubin pharmacophore” (J Nat Prod, 2009):

How the values were obtained:
Assay type in all cases: functional
NCI-H226 = assay: Cytotoxicity against human NCI-H226 cells assessed as cell growth at 1 uM after 1 to 11 days by MTT assay; conditions: read-out: Activity
RXF 393 = assay: Cytotoxicity against human […] cells assessed as cell growth at 1 mM after 1 to 11 days by MTT assay; conditions: read-out: Activity
RPMI-8226 = assay: Cytotoxicity against human RPMI8226 cells after 1 to 11 days by MTT assay
NCI-H322M = assay: Cytotoxicity against human NCI-H322M cells assessed as cell growth at 1 mM after 1 to 11 days by MTT assay; conditions: read-out: Activity
HOP-62 = assay: Cytotoxicity against human HOP62 cells assessed as cell growth at 100 uM after 1 to 11 days by MTT assay; conditions: read-out: Activity
U-251 = assay: Cytotoxicity against human U251 cells assessed as cell growth at 100 uM after 1 to 11 days by MTT assay; conditions: read-out: Activity
SK-MEL-5 = assay: Cytotoxicity against human SK-MEL-5 cells assessed as cell growth at 100 uM after 1 to 11 days by MTT assay; conditions: read-out: Activity
PC-3 = assay: Cytotoxicity against human PC3 cells assessed as cell growth at 1 mM after 1 to 11 days by MTT assay; conditions: read-out: Activity
IGROV-1 = assay: Cytotoxicity against human IGROV1 cells assessed as cell growth at 100 uM after 1 to 11 days by MTT assay; conditions: read-out: Activity
TK-10 = assay: Cytotoxicity against human TK10 cells assessed as cell growth at 10 uM after 1 to 11 days by MTT assay; conditions: read-out: Activity
KM12 = assay: Cytotoxicity against human KM12 cells after 1 to 11 days by MTT assay
SF-268 = assay: Cytotoxicity against human SF268 cells assessed as cell growth at 1 uM after 1 to 11 days by MTT assay; conditions: read-out: Activity
HL-60(TB) = assay: Cytotoxicity against human HL-60(TB) cells after 1 to 11 days by MTT assay
T47D = assay: Cytotoxicity against human T47D cells assessed as cell growth at 1 mM after 1 to 11 days by MTT assay; conditions: read-out: Activity
NCI/ADR-RES = assay: Cytotoxicity against human NCI/ADR-RES cells assessed as cell growth at 10 uM after 1 to 11 days by MTT assay; conditions: read-out: Activity
ACHN = assay: Cytotoxicity against human ACHN cells assessed as cell growth at 10 uM after 1 to 11 days by MTT assay; conditions: read-out: Activity
HCC 2998 = assay: Cytotoxicity against human HCC2998 cells assessed as cell growth at 1 uM after 1 to 11 days by MTT assay; conditions: read-out: Activity
[1] = read-out: LC50 (the source's name)

O=C1Nc2ncccc2/C1=C1/Nc2ccccc2/C1=N\O
growth at 1 µM (NCI-H226): 84% | growth at 1000 µM (RXF 393): 7% | GI50 (RPMI-8226): 1.89 µM | TGI (RPMI-8226): 62.5 µM | CC50 (RPMI-8226; [1]): > 100 µM | growth at 1000 µM (NCI-H322M): 12% | growth at 100 µM (HOP-62): 63% | growth at 100 µM (U-251): 55% | growth at 100 µM (SK-MEL-5): 49% | growth at 1000 µM (PC-3): 45% | growth at 100 µM (IGROV-1): 13% | growth at 10 µM (TK-10): 91% | GI50 (KM12): 0.77 µM | TGI (KM12): > 100 µM | CC50 (KM12; [1]): > 100 µM | growth at 1 µM (SF-268): 99% | GI50 (HL-60(TB)): 5.23 µM | TGI (HL-60(TB)): > 100 µM | CC50 (HL-60(TB); [1]): > 100 µM | growth at 1000 µM (T47D): 21% | growth at 10 µM (NCI/ADR-RES): 99% | growth at 10 µM (ACHN): 72% | growth at 1 µM (HCC 2998): 87%
